Read-outs that look alike come from different tables or passages of the source.
Assay: Fluocinolone acetonide concentration in dog plasma after bilateral intraarticular implants (twelve month toxicity study in beagle dogs)
Format: in vivo, Canis familiaris
Details: other: bilateral intraarticular implants (knee joints)
Protocol: Devices were administered once via bilateral intraarticular implants. The day of surgical implantation was Day 1. The devices were made as follows. Fluocinolone acetonide, USP, was compressed into 1.5 mm diameter tablets using standard pharmaceutical methods. The tablets were placed into preformed cups made from silicone elastomer. Cup size was dependent on dosage form. These cups were attached to […] (PVA) suture tabs. For the 2 mg implants, the surface of the tablet not coated with silicone was attached to a suture tab with PVA solution. For the 6 mg implant, a side of the silicone cup was attached perpendicular to the suture tab. Finally, the assemblies were dip coated with PVA. The implants were then cured at 135° C. for 5 hours and placed within the primary package. The product in the primary package was placed in a self-adhesive pouch and sterilized using gamma irradiation. Surgery was performed on both knee joints of all animals. A lateral skin incision was made to expose the fascia lata overlying the vastus lateralis cranially and the biceps fernoris caudally. The joint was exposed through an incision in the lateral intermuscular septum to expose the femur by anterior retraction of the vastus lateralis and posterior retraction of the biceps femoris. Care was taken not to disrupt the tendon of origin of the long digital extensor as it originates from the lateral femoral condyle. The joint capsule was opened, the patella luxated medially, and the joint was held in full flexion. 2 mg devices were placed in the right leg and 18 mg implants were placed in the left leg. The implants were placed within the anterior intercondyloid fossa, immediately lateral to the origin of the posterior cruciate ligament. The bone may be slightly deepened at this location with a curette to accept the implant. The implant was sutured in place to the posterior cruciate ligament. The joint capsule was closed with 3/0 PDS in a simple interrupted fashion. The retinaculum and intermuscular septum were closed with 2/0 Vicryl in a continuous pattern. The fascia lata were closed with 2/0 PDS, and the subcutaneous tissues with 3/0 PDS, both in a simple continuous pattern. The skin was closed with 3/0 Vicryl in a subcuticular pattern. Blood was collected from a peripheral vessel. Blood volumes represent whole blood and are approximate amounts. The blood samples were processed for plasma, the plasma was extracted, and the plasma was placed immediately in a ≦−70°C. freezer until transferred for analysis.

## CC1(C)O[C@@H]2C[C@H]3[C@@H]4C[C@H](F)C5=CC(=O)C=C[C@]5(C)[C@@]4(F)[C@@H](O)C[C@]3(C)[C@]2(C(=O)CO)O1 [Fluocinolone Acetonide]
Dog 1001, Day 3, read-out: Assayed Concentrations of Fluocinolone Acetonide in Dog Plasma Samples
  concentration at 3 day: 1.89 ng/mL
Dog 1001, Day 21, read-out: Assayed Concentrations of Fluocinolone Acetonide in Dog Plasma Samples
  concentration at 21 day: 0.57 ng/mL
Dog 3001, Day 7, read-out: Assayed Concentrations of Fluocinolone Acetonide in Dog Plasma Samples
  concentration at 7 day: 16.9 ng/mL
Dog 3001, Day 21, read-out: Assayed Concentrations of Fluocinolone Acetonide in Dog Plasma Samples
  concentration at 21 day: 4.92 ng/mL
